Experimental data from US20230146455A1, “TREATMENT OF INFLAMMATORY DISEASES WITH PEPTIDES AND PHARMACEUTICAL COMPOSITIONS” (Yuyu Pharma, Inc., priority 2020, published 2023).
Several values for one entry are separate records, joined by “and”; a condition that tells them apart may be missing. Equal values may be shown once. Where a SMILES comes first, the peptide text is derived from it. [ ]: non-standard residue; d: D form. Hyp = O=C(O)[C@@H]1C[C@@H](O)CN1

Assays:
IL-1 beta/IL-1F2 = experiment: Example 8 main study Luminex, LPS hPBMCs: IL-1 beta/IL-1F2; format: cell-based, human
Experimental: (§1) Human PBMCs were pretreated with YY-101, YDE-011, YDE-043 or reference compound; Xiidra® at various concentration (ranging from […] to 500 nM) for 2 h before stimulation. An equal volume of 0.5% DMSO was used as a vehicle control. Then, the cells were treated with LPS at 5 ug/ml, which was selected based on the pilot study. The supernatants from treated cells were harvested at 24 h and placed in a 96 well for Luminex cytokine & chemokine profiling using a Luminex 200 multiplex assay (Luminex; R&D system, USA).
(§2) The main study arm with triplicate wells per group in a 24-well plate: • 1. Blank • 2. PBMC: 0.5% DMSO • 3. PBMC+LPS (5 ug/ml) • 4. PBMC+YY-101 500 nM • 5. PBMC+YY-101 50 nM • 6. PBMC+YY-101 5 nM • 7. PBMC+YY-101 0.5 nM • 8. PBMC+LPS (5 ug/ml)+Xiidra® 500 nM • 9. PBMC+LPS (5 ug/ml)+Xiidra® 50 nM • 10. PBMC+LPS (5 ug/ml)+Xiidra® 5 nM • 11. PBMC+LPS (5 ug/ml)+Xiidra® 0.5 nM • 12. PBMC+LPS (5 ug/ml)+Xiidra® 0.05 nM • 13. PBMC+LPS (5 ug/ml)+Xiidra® 0.005 nM • 14. PBMC+LPS (5 ug/ml)+YY-101 500 nM • 15. PBMC+LPS (5 ug/ml)+YY-101 50 nM • 16. PBMC+LPS (5 ug/ml)+YY-101 5 nM • 17. PBMC+LPS (5 ug/ml)+YY-101 0.5 nM • 18. PBMC+LPS (5 ug/ml)+YY-101 0.05 nM • 19. PBMC+LPS (5 ug/ml)+YY-101 0.005 nM • 20. PBMC+LPS (5 ug/ml)+YDE-011 500 nM • 21. PBMC+LPS (5 ug/ml)+YDE-011 50 nM • 22. PBMC+LPS (5 ug/ml)+YDE-011 5 nM • 23. PBMC+LPS (5 ug/ml)+YDE-011 0.5 nM • 24. PBMC+LPS (5 ug/ml)+YDE-011 0.05 nM • 25. PBMC+LPS (5 ug/ml)+YDE-011 0.005 nM • 26. PBMC+LPS (5 ug/ml)+YDE-043 500 nM • 27. PBMC+LPS (5 ug/ml)+YDE-043 50 nM • 28. PBMC+LPS (5 ug/ml)+YDE-043 5 nM • 29. PBMC+LPS (5 ug/ml)+YDE-043 0.5 nM • 30. PBMC+LPS (5 ug/ml)+YDE-043 0.05 nM • 31. PBMC+LPS (5 ug/ml)+YDE-043 0.005 nM
(§3) Multiplex assay was used to measure 30 cytokines and chemokines. The 1:200 diluted cell supernatant and serial dilution of the standard were dispensed into a 96 well plate at 50 ul/well. Then, the pre-mixed cocktail of antibody-coated magnetic beads was dispensed at 50 ul/well and incubated at room temperature for 2 h in a horizontal orbital microplate shaker at 800±500 rpm. The beads were washed using a magnetic device to prevent loss. The biotin-antibody was dispensed in 50 ul of each well and incubated at room temperature for 1 h in a shaker at 800±500 rpm. After washing, streptavidin-PE was added at 50 ul/well and incubated at room temperature for 30 min in a shaker under the same conditions. Finally, after washing, wash buffer (100 ul/well) was added to the plate and incubated in a shaker for 2 min. The Luminex™ 200 setting were set according to the manufacturer's protocol. The data was calculated with a standard five-parameter logistic nonlinear regression analysis of the data (xPonent software 4.2, USA). Results were presented as concentration (ng/ml or pg/ml).

MMP-9 = experiment: Example 8 main study Luminex, LPS hPBMCs: MMP-9; format: cell-based, human; settings: PBMC + LPS(5 ug/ml)
Experimental: as §1, §2, §3

[1] = PBMC + LPS(5 ug/ml) + test article 0.005 nM, Mean
[2] = PBMC + LPS(5 ug/ml) + test article 0.005 nM, individual replicates
[3] = PBMC + LPS(5 ug/ml) + test article 0.05 nM, Mean
[4] = PBMC + LPS(5 ug/ml) + test article 0.05 nM, individual replicates
[5] = PBMC + LPS(5 ug/ml) + test article 0.5 nM, Mean
[6] = PBMC + LPS(5 ug/ml) + test article 0.5 nM, individual replicates
[7] = PBMC + LPS(5 ug/ml) + test article 5 nM, Mean
[8] = PBMC + LPS(5 ug/ml) + test article 5 nM, individual replicates
[9] = PBMC + LPS(5 ug/ml) + test article 50 nM, Mean
[10] = PBMC + LPS(5 ug/ml) + test article 50 nM, individual replicates
[11] = PBMC + LPS(5 ug/ml) + test article 500 nM, Mean
[12] = PBMC + LPS(5 ug/ml) + test article 500 nM, individual replicates
[13] = test article 0.005 nM, single replicates
[14] = test article 0.05 nM, single replicates
[15] = test article 0.5 nM, single replicates
[16] = test article 5 nM, single replicates
[17] = test article 50 nM, single replicates
[18] = test article 500 nM, single replicates

CC(C)C[C@H](NC(=O)[C@H](CCC(N)=O)NC(=O)CNC(=O)[C@@H]1C[C@@H](O)CN1)C(=O)NCC(=O)O [YDE-043] (H-[Hyp]GQLG-OH; N-terminus and C-terminus assumed)
LPS-induced IL-1b levels (in words) (IL-1 beta/IL-1F2; LPS 5 ug/mL 24 hrs): significantly lowered | IL-1 beta/IL-1F2 Concentration (IL-1 beta/IL-1F2; [1]): 5499.4 pg/mL | IL-1 beta/IL-1F2 MFI (IL-1 beta/IL-1F2; [1]): 100.0 | IL-1 beta/IL-1F2 Concentration (IL-1 beta/IL-1F2; [2]): 4547.7 pg/mL and 5320.3 pg/mL and 6630.3 pg/mL | IL-1 beta/IL-1F2 MFI (IL-1 beta/IL-1F2; [2]): 84.0 and 97.0 and 119.0 | IL-1 beta/IL-1F2 Concentration (IL-1 beta/IL-1F2; [3]): 4458.6 pg/mL | IL-1 beta/IL-1F2 MFI (IL-1 beta/IL-1F2; [3]): 82.5 | IL-1 beta/IL-1F2 Concentration (IL-1 beta/IL-1F2; [4]): 4488.3 pg/mL and 4428.9 pg/mL and 4458.6 pg/mL | IL-1 beta/IL-1F2 MFI (IL-1 beta/IL-1F2; [4]): 83.0 and 82.0 and 82.5 | IL-1 beta/IL-1F2 Concentration (IL-1 beta/IL-1F2; [5]): 4725.9 pg/mL | IL-1 beta/IL-1F2 MFI (IL-1 beta/IL-1F2; [5]): 87.0 | IL-1 beta/IL-1F2 Concentration (IL-1 beta/IL-1F2; [6]): 4963.6 pg/mL and 4785.3 pg/mL and 4428.9 pg/mL | IL-1 beta/IL-1F2 MFI (IL-1 beta/IL-1F2; [6]): 91.0 and 88.0 and 82.0 | IL-1 beta/IL-1F2 Concentration (IL-1 beta/IL-1F2; [7]): 5379.8 pg/mL | IL-1 beta/IL-1F2 MFI (IL-1 beta/IL-1F2; [7]): 98.0 | IL-1 beta/IL-1F2 Concentration (IL-1 beta/IL-1F2; [8]): 5379.8 pg/mL and 5558.3 pg/mL and 5201.4 pg/mL | IL-1 beta/IL-1F2 MFI (IL-1 beta/IL-1F2; [8]): 98.0 and 101.0 and 95.0 | IL-1 beta/IL-1F2 Concentration (IL-1 beta/IL-1F2; [9]): 5280.8 pg/mL | IL-1 beta/IL-1F2 MFI (IL-1 beta/IL-1F2; [9]): 96.3 | IL-1 beta/IL-1F2 Concentration (IL-1 beta/IL-1F2; [10]): 5588.1 pg/mL and 5469.1 pg/mL and 4785.3 pg/mL | IL-1 beta/IL-1F2 MFI (IL-1 beta/IL-1F2; [10]): 101.5 and 99.5 and 88.0 | IL-1 beta/IL-1F2 Concentration (IL-1 beta/IL-1F2; [11]): 4508.2 pg/mL | IL-1 beta/IL-1F2 MFI (IL-1 beta/IL-1F2; [11]): 83.3 | IL-1 beta/IL-1F2 Concentration (IL-1 beta/IL-1F2; [12]): 4428.9 pg/mL and 4191.5 pg/mL and 4904.1 pg/mL | IL-1 beta/IL-1F2 MFI (IL-1 beta/IL-1F2; [12]): 82.0 and 78.0 and 90.0 | Concentration (pg/ml), MMP-9 (MMP-9; test article 0.005 nM, Mean): 5247.2 pg/mL | MFI (Bead name: MMP-9) (MMP-9; test article 0.005 nM, Mean): 33.0 | Concentration (pg/ml), MMP-9 (MMP-9; [13]): 3994.2 pg/mL and 5555.3 pg/mL and 6192.0 pg/mL | MFI (Bead name: MMP-9) (MMP-9; [13]): 29.0 and 34.0 and 36.0 | Concentration (pg/ml), MMP-9 (MMP-9; test article 0.05 nM, Mean): 3943.4 pg/mL | MFI (Bead name: MMP-9) (MMP-9; test article 0.05 nM, Mean): 28.8 | Concentration (pg/ml), MMP-9 (MMP-9; [14]): 3994.2 pg/mL and 4148.1 pg/mL and 3688.0 pg/mL | MFI (Bead name: MMP-9) (MMP-9; [14]): 29.0 and 29.5 and 28.0 | Concentration (pg/ml), MMP-9 (MMP-9; test article 0.5 nM, Mean): 3536.4 pg/mL | MFI (Bead name: MMP-9) (MMP-9; test article 0.5 nM, Mean): 27.5 | Concentration (pg/ml), MMP-9 (MMP-9; [15]): 3688.0 pg/ml (2×) and 3233.2 pg/ml | MFI (Bead name: MMP-9) (MMP-9; [15]): 28.0 (2×) and 26.5 | Concentration (pg/ml), MMP-9 (MMP-9; test article 5 nM, Mean): 3842.1 pg/mL | MFI (Bead name: MMP-9) (MMP-9; test article 5 nM, Mean): 28.5 | Concentration (pg/ml), MMP-9 (MMP-9; [16]): 4302.5 pg/mL and 3688.0 pg/mL and 3535.8 pg/mL | MFI (Bead name: MMP-9) (MMP-9; [16]): 30.0 and 28.0 and 27.5 | Concentration (pg/ml), MMP-9 (MMP-9; test article 50 nM, Mean): 3892.8 pg/mL | MFI (Bead name: MMP-9) (MMP-9; test article 50 nM, Mean): 28.7 | Concentration (pg/ml), MMP-9 (MMP-9; [17]): 3688.0 pg/ml (2×) and 4302.5 pg/ml | MFI (Bead name: MMP-9) (MMP-9; [17]): 28.0 (2×) and 30.0 | Concentration (pg/ml), MMP-9 (MMP-9; test article 500 nM, Mean): 4100.4 pg/mL | MFI (Bead name: MMP-9) (MMP-9; test article 500 nM, Mean): 29.3 | Concentration (pg/ml), MMP-9 (MMP-9; [18]): 3688.0 pg/ml (2×) and 4925.2 pg/ml | MFI (Bead name: MMP-9) (MMP-9; [18]): 28.0 (2×) and 32.0
